In patent US20130040935A1, “CYCLIC KETO-ENOLS FOR THERAPY” (BAYER INTELLECTUAL PROPERTY GMBH, priority 2010, published 2013):
Where two headings read alike, the source gives them in different places.

How the values were obtained:
[1] = target: T1, human ACC1 (acetyl-coenzyme A carboxylase alpha transcript variant 1) (Homo sapiens, UniProt Q13085); assay: Human ACC1 enzyme assay, Assay B1 (ADP-Glo); assay type: biochemical
T1 construct: FLAG (C); made in house; host or cells: baculovirus-infected insect cells (Hi5)
Method: Essentially, the enzyme activity is measured by quantifying the adenosine diphosphate (ADP) formed as a byproduct of the enzyme reactions using the ADP-Glo™ detection system from Promega. In this test, initially the adenosine triphosphate (ATP) not consumed in the enzyme reaction is converted quantitatively with an adenylate cyclase (“ADP-GLO reagent”) into cAMP, the adenylate cyclase is then stopped and (“kinase detection reagent”) the ADP formed is subsequently converted into ATP, which is converted in a luciferase-based reaction into a glow luminescence signal.
The concentration of the hACC1 was adapted to the respective activity of the enzyme and adjusted such that the assay operated in the linear range. […] The amount of light emitted was taken as a measure for the amount of ADP formed and thus for the enzyme activity of the hACC1.

MCF7 = assay: Cell proliferation assay (CellTiter-Glo, 96 h), MCF7; assay type: cell-based; conditions: Homo sapiens
Procedure, shortened: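 Growth inhibition in percent was based on luminescence differences between treated and control samples after subtracting baseline readings taken at t=0. Cells had been incubated with compound for 96 hours at 37° C. following overnight plating.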

[2] = target: human ACC2 (acetyl-coenzyme A carboxylase 2) (Homo sapiens, UniProt O00763); assay: Human ACC2 enzyme assay, Assay B2 (ADP-Glo);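 further: human ACC2 activity read as ADP product, detected by luciferase glow luminescence after residual ATP removal, enzyme near 2 ng/µl in linear range, detection steps at 22 °C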
Sequence of human ACC2 (acetyl-coenzyme A carboxylase 2) (O00763 27-2458 limits assumed): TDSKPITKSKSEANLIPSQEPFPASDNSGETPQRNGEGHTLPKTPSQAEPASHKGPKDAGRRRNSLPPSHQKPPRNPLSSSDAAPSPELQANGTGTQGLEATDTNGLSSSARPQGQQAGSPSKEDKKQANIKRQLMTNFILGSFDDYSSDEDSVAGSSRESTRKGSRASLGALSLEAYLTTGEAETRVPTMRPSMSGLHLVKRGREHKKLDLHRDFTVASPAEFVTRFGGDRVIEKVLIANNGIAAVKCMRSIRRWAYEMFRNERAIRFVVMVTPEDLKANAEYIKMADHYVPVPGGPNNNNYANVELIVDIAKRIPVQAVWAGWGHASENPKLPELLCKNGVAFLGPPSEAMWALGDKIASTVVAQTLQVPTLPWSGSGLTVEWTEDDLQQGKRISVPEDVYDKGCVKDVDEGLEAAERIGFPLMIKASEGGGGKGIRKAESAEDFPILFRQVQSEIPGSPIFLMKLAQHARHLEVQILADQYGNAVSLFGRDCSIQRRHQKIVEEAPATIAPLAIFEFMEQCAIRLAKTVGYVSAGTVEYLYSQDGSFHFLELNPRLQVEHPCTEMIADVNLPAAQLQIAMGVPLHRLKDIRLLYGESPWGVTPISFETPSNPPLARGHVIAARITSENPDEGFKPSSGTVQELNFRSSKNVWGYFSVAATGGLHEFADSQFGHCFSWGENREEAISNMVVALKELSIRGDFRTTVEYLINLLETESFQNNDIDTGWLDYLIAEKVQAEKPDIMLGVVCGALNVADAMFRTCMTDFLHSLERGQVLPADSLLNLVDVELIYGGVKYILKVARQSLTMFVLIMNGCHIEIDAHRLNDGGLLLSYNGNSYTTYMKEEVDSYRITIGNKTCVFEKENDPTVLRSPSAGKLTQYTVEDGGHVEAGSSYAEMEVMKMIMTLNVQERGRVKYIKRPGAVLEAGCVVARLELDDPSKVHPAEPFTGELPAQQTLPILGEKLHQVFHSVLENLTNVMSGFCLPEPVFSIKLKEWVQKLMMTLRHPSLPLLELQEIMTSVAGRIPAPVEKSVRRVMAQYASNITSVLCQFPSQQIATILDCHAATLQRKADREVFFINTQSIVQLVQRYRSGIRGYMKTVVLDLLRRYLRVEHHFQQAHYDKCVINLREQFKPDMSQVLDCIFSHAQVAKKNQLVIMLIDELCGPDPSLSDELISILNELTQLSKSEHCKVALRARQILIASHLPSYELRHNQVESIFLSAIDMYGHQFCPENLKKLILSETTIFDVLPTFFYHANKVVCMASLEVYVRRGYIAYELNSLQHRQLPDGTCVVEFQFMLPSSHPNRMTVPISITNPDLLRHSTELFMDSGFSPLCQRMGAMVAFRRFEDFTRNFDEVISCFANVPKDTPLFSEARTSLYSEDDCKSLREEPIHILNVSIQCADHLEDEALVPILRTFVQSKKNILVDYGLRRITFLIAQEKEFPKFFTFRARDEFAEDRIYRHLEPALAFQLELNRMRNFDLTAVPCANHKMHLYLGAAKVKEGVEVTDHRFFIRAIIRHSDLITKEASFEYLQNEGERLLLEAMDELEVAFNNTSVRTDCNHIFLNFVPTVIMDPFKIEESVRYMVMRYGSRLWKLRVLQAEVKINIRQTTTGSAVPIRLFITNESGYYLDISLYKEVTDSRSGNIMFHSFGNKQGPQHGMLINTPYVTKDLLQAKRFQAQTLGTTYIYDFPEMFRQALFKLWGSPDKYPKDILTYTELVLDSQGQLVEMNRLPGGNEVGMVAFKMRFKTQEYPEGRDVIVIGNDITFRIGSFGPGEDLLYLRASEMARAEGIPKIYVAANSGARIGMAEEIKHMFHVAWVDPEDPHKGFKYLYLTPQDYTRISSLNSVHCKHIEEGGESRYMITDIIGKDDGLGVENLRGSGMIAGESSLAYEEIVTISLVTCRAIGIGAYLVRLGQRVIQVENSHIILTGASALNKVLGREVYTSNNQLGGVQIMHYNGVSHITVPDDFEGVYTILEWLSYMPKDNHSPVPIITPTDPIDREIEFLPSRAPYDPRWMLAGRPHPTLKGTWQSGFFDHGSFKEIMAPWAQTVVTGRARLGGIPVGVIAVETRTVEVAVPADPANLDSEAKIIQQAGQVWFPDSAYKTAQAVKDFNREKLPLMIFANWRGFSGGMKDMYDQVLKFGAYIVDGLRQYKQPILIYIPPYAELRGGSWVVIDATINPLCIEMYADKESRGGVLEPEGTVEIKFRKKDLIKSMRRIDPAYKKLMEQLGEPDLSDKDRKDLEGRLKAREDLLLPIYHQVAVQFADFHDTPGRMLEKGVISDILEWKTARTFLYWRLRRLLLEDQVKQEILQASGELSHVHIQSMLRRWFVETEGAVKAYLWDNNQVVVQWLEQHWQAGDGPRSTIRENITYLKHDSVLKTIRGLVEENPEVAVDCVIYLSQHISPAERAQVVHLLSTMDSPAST

recombinant human ACC1 = recombinant human ACC1 (Homo sapiens, UniProt Q13085); assay: Human ACC1 enzyme assay, Assay A1 (HTRF ADP immunoassay);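 further: ADP generated by the enzyme quantified via competitive time-resolved FRET, read as europium cryptate to d2 energy transfer after 1 h at 22 °C with labelled ADP tracer and anti-ADP antibody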
Method: The inhibitory activity of the substances of this invention with regard to acetyl-CoA carboxylase 1 (ACC1) was measured using the ACC1 assay described in the paragraphs below. The basic principle of the assay is the measurement of adenosine diphosphate (ADP), which is formed as a by-product, by means of an HTRF®-based competitive immunoassay (HTRF=Homogeneous Time Resolved Fluorescence).
Typical concentrations were in the range of 2.5 ng/μl.
The amount of complex between d2-labelled ADP and europium cryptate-labelled anti-ADP antibody was then determined by measuring the resonance energy transfer from the europium cryptate to d2.

[3] = target: acetyl-CoA carboxylase 2 (ACC2) (Homo sapiens, UniProt O00763); assay: Human ACC2 enzyme assay, Assay A2 (HTRF ADP immunoassay);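 further: ADP generated by ACC2 quantified via competitive time-resolved FRET between europium cryptate anti-ADP antibody and d2-tagged ADP, enzyme kept in linear range near 0.6 ng/µl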
Sequence of acetyl-CoA carboxylase 2 (ACC2) (O00763 39-2458 limits assumed): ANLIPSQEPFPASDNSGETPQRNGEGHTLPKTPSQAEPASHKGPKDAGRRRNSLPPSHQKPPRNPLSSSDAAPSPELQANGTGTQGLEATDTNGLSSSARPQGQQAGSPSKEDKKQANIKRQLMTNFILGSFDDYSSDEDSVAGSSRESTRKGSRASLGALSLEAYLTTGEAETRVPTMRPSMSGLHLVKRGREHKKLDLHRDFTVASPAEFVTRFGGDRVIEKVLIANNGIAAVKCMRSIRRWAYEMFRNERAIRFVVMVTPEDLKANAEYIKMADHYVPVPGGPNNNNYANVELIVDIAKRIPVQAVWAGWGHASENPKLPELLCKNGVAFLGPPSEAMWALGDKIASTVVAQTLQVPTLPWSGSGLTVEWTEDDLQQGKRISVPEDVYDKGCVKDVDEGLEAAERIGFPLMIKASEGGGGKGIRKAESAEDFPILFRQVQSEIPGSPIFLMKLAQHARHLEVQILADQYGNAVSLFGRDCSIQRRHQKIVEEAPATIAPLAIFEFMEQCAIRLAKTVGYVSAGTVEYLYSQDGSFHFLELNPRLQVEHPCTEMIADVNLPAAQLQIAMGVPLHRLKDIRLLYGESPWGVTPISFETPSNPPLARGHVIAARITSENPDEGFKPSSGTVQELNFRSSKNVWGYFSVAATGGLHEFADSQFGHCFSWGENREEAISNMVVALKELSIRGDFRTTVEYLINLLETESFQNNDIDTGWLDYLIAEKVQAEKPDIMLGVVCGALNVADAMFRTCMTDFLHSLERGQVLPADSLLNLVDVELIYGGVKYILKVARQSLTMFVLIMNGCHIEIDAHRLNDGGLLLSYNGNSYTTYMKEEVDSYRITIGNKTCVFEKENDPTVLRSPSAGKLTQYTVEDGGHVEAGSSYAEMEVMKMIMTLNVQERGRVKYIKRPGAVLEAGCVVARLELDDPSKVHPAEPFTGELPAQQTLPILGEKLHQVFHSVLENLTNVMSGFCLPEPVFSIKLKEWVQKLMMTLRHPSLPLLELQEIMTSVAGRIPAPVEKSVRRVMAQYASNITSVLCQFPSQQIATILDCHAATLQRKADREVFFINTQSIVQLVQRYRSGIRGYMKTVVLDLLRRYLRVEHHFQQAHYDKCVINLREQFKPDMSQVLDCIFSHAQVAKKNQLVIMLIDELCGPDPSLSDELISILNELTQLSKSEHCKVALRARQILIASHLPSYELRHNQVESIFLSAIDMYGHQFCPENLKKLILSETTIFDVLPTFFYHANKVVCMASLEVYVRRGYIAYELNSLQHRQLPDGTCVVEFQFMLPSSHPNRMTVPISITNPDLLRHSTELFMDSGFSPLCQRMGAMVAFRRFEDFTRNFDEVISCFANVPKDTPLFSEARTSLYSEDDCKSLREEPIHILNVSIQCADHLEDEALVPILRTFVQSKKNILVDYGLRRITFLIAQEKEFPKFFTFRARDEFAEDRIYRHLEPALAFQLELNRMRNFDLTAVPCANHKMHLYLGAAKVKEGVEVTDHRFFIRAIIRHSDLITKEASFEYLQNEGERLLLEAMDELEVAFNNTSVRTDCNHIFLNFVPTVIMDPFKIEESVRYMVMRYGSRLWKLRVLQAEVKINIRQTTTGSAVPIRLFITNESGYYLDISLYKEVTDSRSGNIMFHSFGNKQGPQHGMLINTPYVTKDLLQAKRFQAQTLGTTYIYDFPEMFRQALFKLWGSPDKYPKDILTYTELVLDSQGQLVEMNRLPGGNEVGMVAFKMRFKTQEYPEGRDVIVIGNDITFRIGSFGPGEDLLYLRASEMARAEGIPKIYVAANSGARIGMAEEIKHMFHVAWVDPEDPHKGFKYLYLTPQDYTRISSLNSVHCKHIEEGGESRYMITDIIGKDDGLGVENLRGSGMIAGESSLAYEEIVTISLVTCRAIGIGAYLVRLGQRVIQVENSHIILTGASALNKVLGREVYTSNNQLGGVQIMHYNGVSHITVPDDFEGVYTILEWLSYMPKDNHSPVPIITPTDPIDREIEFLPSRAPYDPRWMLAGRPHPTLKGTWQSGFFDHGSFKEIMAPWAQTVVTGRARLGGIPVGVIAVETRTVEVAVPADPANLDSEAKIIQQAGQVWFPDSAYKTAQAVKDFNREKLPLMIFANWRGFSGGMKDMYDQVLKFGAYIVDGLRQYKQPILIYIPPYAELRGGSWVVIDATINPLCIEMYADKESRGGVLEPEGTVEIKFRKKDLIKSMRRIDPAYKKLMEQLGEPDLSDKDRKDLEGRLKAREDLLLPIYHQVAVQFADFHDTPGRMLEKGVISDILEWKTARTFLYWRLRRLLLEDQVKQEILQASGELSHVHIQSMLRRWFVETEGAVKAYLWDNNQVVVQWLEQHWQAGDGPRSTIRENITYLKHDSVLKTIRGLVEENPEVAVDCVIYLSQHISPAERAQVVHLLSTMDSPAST

[4] = Assay B1, read-out: ACC 1 (=B1) IC50
[5] = MCF7, Table 7, 96-hour incubation

| Compound | IC50 [1, 4] [nM] | IC50 (MCF7; [5]) [nM] | IC50 [2] [nM] | IC50 (recombinant human ACC1) [nM] | IC50 [3] [nM] | IC50 [1] [nM] | IC50 (MCF7; MCF7 cells) [nM] |
| --- | --- | --- | --- | --- | --- | --- | --- |
| Cc1cc(F)c(-c2ccc(Cl)c(F)c2)cc1C1=C(O)C2(CCC(C(F)(F)F)CC2)NC1=O (mixture of isomers) [1-94, 3-(4′-Chloro-3′,6-difluoro-4-methylbiphenyl-3-yl)-4-hydroxy-8-(trifluoromethyl)-1-azaspiro[4.5]dec-3-en-2-one] | 99 | 85 | 2030 | 73 | 873 |  |  |
| Cc1cc(F)c(-c2ccc(Cl)cc2)cc1C1=C(O)C2(CCC(C(F)(F)F)CC2)NC1=O (mixture of isomers) [1-100, 3-(4′-Chloro-6-fluoro-4-methylbiphenyl-3-yl)-4-hydroxy-8-(trifluoromethyl)-1-azaspiro[4.5]dec-3-en-2-one] |  | 127 | 2470 | 91 | 988 | 96 |  |
| Cc1ccc(-c2ccc(Cl)c(F)c2)cc1C1=C(O)[C@]2(CC[C@H](C(F)(F)F)CC2)NC1=O [1-90, (5s,8s)-3-(4′-Chloro-3′-fluoro-4-methylbiphenyl-3-yl)-4-hydroxy-8-(trifluoromethyl)-1-azaspiro[4.5]dec-3-en-2-one] | 63 |  | 595 | 143 | 331 |  |  |
| Cc1c(F)cc(-c2ccc(Cl)cc2)cc1C1=C(O)[C@]2(CC[C@H](C(F)(F)F)CC2)NC1=O [1-91, (5s,8s)-3-(4′-Chloro 5 fluoro 4-methylbiphenyl-3-yl)-4-hydroxy-8-(trifluoromethyl)-1-azaspiro[4.5]dec-3-en-2-one] |  |  | 4990 | 302 | 5010 | 266 |  |
| O=C1N[C@]2(CC[C@@H](C(F)(F)F)CC2)C(O)=C1c1cc(-c2ccc(Cl)c(F)c2)ccc1Cl [1-92, (5s,8s)-3-(4,4′-Dichloro-3′-fluorobiphenyl-3-yl)-4-hydroxy-8-(trifluoromethyl)-1-azaspiro[4.5]dec-3-en-2-one] |  |  | 1660 | 226 | 1450 | 72 |  |
| Cc1ccc(-c2ccc(Cl)c(F)c2)c(C)c1C1=C(O)[C@]2(CC[C@H](C(F)(F)F)CC2)NC1=O [1-93, (5s,8s)-3-(4′-Chloro-3′-fluoro-2,4-dimethylbiphenyl-3-yl)-4-hydroxy-8-(trifluoromethyl)-1-azaspiro[4.5]dec-3-en-2-one] |  | 78 | 4010 | 301 | 876 | 217 |  |
| Cc1ccc(-c2ccc(Cl)cc2)c(C)c1C1=C(O)[C@]2(CC[C@H](C(F)(F)F)CC2)NC1=O [1-95, (5s,8s)-3-(4′-Chloro-2,4-dimethylbiphenyl-3-yl)-4-hydroxy-8-(trifluoromethyl)-1-azaspiro[4.5]dec-3-en-2-one] | 383 | 88 | 2410 | 378 | 393 |  |  |
| Cc1c(F)cc(-c2ccc(F)c(F)c2)cc1C1=C(O)[C@]2(CC[C@H](C(F)(F)F)CC2)NC1=O [1-96, (5s,8s)-4-Hydroxy-8-(trifluoromethyl)-3-(3′,4′,5-trifluoro-4-methylbiphenyl-3-yl)-1-azaspiro[4.5]dec-3-en-2-one] | 238 | 108 | > 20000 | 416 | > 20000 |  |  |
| Cc1cc(C)c(-c2ccc(Cl)cc2)cc1C1=C(O)C2(CCC(C(F)(F)F)CC2)NC1=O (stereo not shown) [1-97, 3-(4′-Chloro-4,6-dimethylbiphenyl-3-yl)-4-hydroxy-8 (trifluoromethyl)-1-azaspiro[4.5]dec-3-en-2-one] |  | 155 | 269 | 1940 | 138 | 1110 |  |
| Cc1cc(C)c(-c2ccc(Cl)cc2)cc1C1=C(O)[C@]2(CC[C@H](C(F)(F)F)CC2)NC1=O [1-98, (5s,8s)-3-(4′-Chloro-4,6-dimethylbiphenyl-3-yl)-4-hydroxy-8-(trifluoromethyl)-1-azaspiro[4.5]dec-3-en-2-one] |  | 99 | 174 | 2190 | 204 | 1040 |  |
| O=C1N[C@]2(CC[C@@H](C(F)(F)F)CC2)C(O)=C1c1cc(-c2ccc(F)c(F)c2)ccc1Cl [1-99, (5s,8s)-3-(4 Chloro-3′,4′-difluorobiphenyl-3-yl)-4-hydroxy-8-(trifluoromethyl)-1-azaspiro[4.5]dec-3-en-2-one] |  | 120 | 11300 | 327 | 6670 | 207 |  |
| Cc1ccc(-c2ccc(F)c(F)c2)c(C)c1C1=C(O)[C@]2(CC[C@H](C(F)(F)F)CC2)NC1=O [1-101, (5s,8s)-3-(3′,4′-Difluoro-2,4-dimethylbiphenyl-3-yl)-4-hydroxy-8-(trifluoromethyl)-1-azaspiro[4.5]dec-3-en-2-one] |  | 272 | 10500 | 460 | 6070 | 650 |  |
| Cc1c(F)cc(-c2ccc(Cl)c(F)c2)cc1C1=C(O)[C@]2(CC[C@H](C(F)(F)F)CC2)NC1=O [1-102, (5s,8s)-3-(4′-Chloro-3′,5-difluoro-4-methylbiphenyl-3-yl)-4-hydroxy-8-(trifluoromethyl)-1-azaspiro[4.5]dec-3-en-2-one] |  | 79 | 3820 | 214 | 2950 | 243 |  |
| CO[C@H]1CC[C@]2(CC1)NC(=O)C(c1cc(-c3ccc(Cl)c(F)c3)ccc1Cl)=C2O [1-103, (5s,8s)-3-(4,4′-Dichloro-3′-fluorobiphenyl-3-yl)-4-hydroxy-8-methoxy-1-azaspiro[4.5]dec-3-en-2-one] |  | 119 | 4260 | 151 | 1180 | 102 |  |
| CO[C@H]1CC[C@]2(CC1)NC(=O)C(c1cc(-c3ccc(F)c(F)c3)ccc1Cl)=C2O [1-104, (5s,8s)-3-(4 Chloro-3′,4′-difluorobiphenyl-3-yl)-4-hydroxy-8-methoxy-1-azaspiro[4.5]dec-3-en-2-one] |  | 455 | > 20000 | 329 | 17900 | 270 |  |
| CO[C@H]1CC[C@]2(CC1)NC(=O)C(c1cc(-c3ccc(Cl)c(F)c3)cc(F)c1C)=C2O [1-105, (5s,8s)-3-(4′-Chloro-3′,5-difluoro-4-methylbiphenyl-3-yl)-4-hydroxy-8-methoxy-1-azaspiro[4.5]dec-3-en-2-one] |  | 106 | 8940 | 360 | 5560 | 165 |  |
| CO[C@H]1CC[C@]2(CC1)NC(=O)C(c1cc(-c3ccc(Cl)cc3)cc(F)c1C)=C2O [1-106, (5s,8s)-3-(4′-Chloro 5 fluoro 4-methylbiphenyl-3-yl)-4-hydroxy-8-methoxy-1-azaspiro[4.5]dec-3-en-2-one] |  | 155 | 5850 | 439 | 4360 | 207 |  |
| CO[C@H]1CC[C@]2(CC1)NC(=O)C(c1cc(-c3ccc(F)c(F)c3)cc(F)c1C)=C2O [1-107, (5s,8s)-4-Hydroxy-8-methoxy-3-(3′,4′,5-trifluoro-4-methylbiphenyl-3-yl)-1-azaspiro[4.5]dec-3-en 2-one] |  | 267 | > 20000 | 804 | > 20000 | 376 |  |
| CO[C@H]1CC[C@]2(CC1)NC(=O)C(c1cc(-c3ccc(Cl)c(F)c3)c(Cl)cc1C)=C2O [1-108, (5s,8s)-3-(4′,6-Dichloro-3′-fluoro-4-methylbiphenyl-3-yl)-4-hydroxy-8-methoxy-1-azaspiro[4.5]dec-3-en-2-one] |  | 76 | 753 | 460 | 346 | 204 |  |
| CO[C@H]1CC[C@]2(CC1)NC(=O)C(c1cc(-c3ccc(Cl)cc3)c(Cl)cc1C)=C2O [1-109, (5s,8s)-3-(4′,6-Dichloro-4-methylbiphenyl-3-yl)-4-hydroxy-8-methoxy-1-azaspiro[4.5]dec-3-en-2-one] |  | 37 | 394 | 800 | 103 | 293 |  |
| CO[C@H]1CC[C@]2(CC1)NC(=O)C(c1c(C)ccc(-c3ccc(Cl)cc3)c1C)=C2O [1-121, (5s,8s)-3-(4′-Chloro-2,4-dimethylbiphenyl-3-yl)-4-hydroxy-8-methoxy-1-azaspiro[4.5]dec-3-en-2-one] |  | 233 | 1010 | 402 |  | 172 |  |
| O=C1NC2(CCCCC2)C(O)=C1c1cc(-c2ccc(Cl)cc2)ccc1Cl [1-140, 3-(4,4′-Dichlorobiphenyl-3-yl)-4-hydroxy-1-azaspiro[4.5]dec-3-en-2-one] |  | 73 |  | 323 | 1520 |  |  |
| Cc1ccc(-c2ccc(F)c(F)c2)cc1C1=C(O)[C@]2(CC[C@H](C)CC2)NC1=O [1-145, (5s,8s)-3-(3′,4′-Difluoro-4-methylbiphenyl-3-yl)-4-hydroxy-8-methyl-1-azaspiro[4.5]dec-3-en-2-one] |  | 273 |  | 194 | 3310 |  |  |
| Cc1ccc(-c2ccc(Cl)cc2)cc1C1=C(O)C(C)(C)C(C)(C)NC1=O [9-14, 3-(4′-chloro-4-methylbiphenyl-3-yl)-4-hydroxy-5,5,6,6-tetramethyl-5,6-dihydropyridin-2(1H)-one] | 6470 |  | > 20000 |  |  |  | 1460 |
| CCc1cc(C)cc(Br)c1C1=C(O)C2(CCCCC2)NC1=O [V-4, reference compound] |  |  |  | 5400 | > 20000 |  |  |
